“And” between values parts separate entries of the source, which are not always exact repeats. Identical values can stand only once. Toxic doses and inconclusive results are not listed.
Test system: L1210 leukemia ip in BDF1 mice, survival T/C
Assay: NCI In Vivo Anticancer Drug Screen. Data for tumor model L1210 Leukemia (intraperitoneal) in B6D2F1 (BDF1) mice
Conditions: endpoint: mean survival time, higher = longer survival
In short: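 Tumor was transplanted into mice, which were then dosed with test compound or vehicle alone. Survival was recorded for each group, and the treated figure was expressed relative to the control figure.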

[1] = dose: 200.0 mg/kg/injection, schedule: Q01DX001 (ip), vehicle: Klucel (hydroxypropylcellulose) (HPC)
[2] = dose: 100.0 mg/kg/injection, schedule: Q01DX001 (ip), vehicle: saline
[3] = dose: 100.0 mg/kg/injection, schedule: Q01DX009 (ip), vehicle: saline
[4] = dose: 100.0 mg/kg/injection, schedule: Q04DX003 (ip), vehicle: saline
[5] = dose: 200.0 mg/kg/injection, schedule: Q01DX001 (ip), vehicle: saline
[6] = dose: 200.0 mg/kg/injection, schedule: Q01DX009 (ip), vehicle: saline
[7] = dose: 200.0 mg/kg/injection, schedule: Q04DX003 (ip), vehicle: saline
[8] = dose: 400.0 mg/kg/injection, schedule: Q01DX009 (ip), vehicle: saline

Cc1ccc2c(c1)[n+]([O-])c1nc(N)nc(N)c1[n+]2[O-]
T/C (dose: 50.0 mg/kg/injection, schedule: Q04DX002 (ip), vehicle: Klucel (hydroxypropylcellulose) (HPC)): 93 % of control | T/C (dose: 53.0 mg/kg/injection, schedule: Q01DX001 (ip), vehicle: Klucel (hydroxypropylcellulose) (HPC)): 97 % of control | T/C (dose: 88.0 mg/kg/injection, schedule: Q01DX001 (ip), vehicle: Klucel (hydroxypropylcellulose) (HPC)): 96 % of control | T/C (dose: 100.0 mg/kg/injection, schedule: Q04DX002 (ip), vehicle: Klucel (hydroxypropylcellulose) (HPC)): 102 % of control and 104 % of control | T/C (dose: 133.0 mg/kg/injection, schedule: Q01DX001 (ip), vehicle: Klucel (hydroxypropylcellulose) (HPC)): 91 % of control | T/C [1]: 97 % of control | T/C (dose: 300.0 mg/kg/injection, schedule: Q01DX001 (ip), vehicle: Klucel (hydroxypropylcellulose) (HPC)): 104 % of control | T/C (dose: 400.0 mg/kg/injection, schedule: Q04DX002 (ip), vehicle: Klucel (hydroxypropylcellulose) (HPC)): 98 % of control and 119 % of control

C1CCC(OB2OB(OC3CCCCC3)OB(OC3CCCCC3)O2)CC1
T/C (dose: 50.0 mg/kg/injection, schedule: Q04DX003 (ip), vehicle: saline): 93 % of control | T/C [2]: 93 % of control | T/C [3]: 97 % of control | T/C [4]: 98 % of control | T/C [5]: 98 % of control | T/C [6]: 110 % of control | T/C [7]: 103 % of control | T/C (dose: 400.0 mg/kg/injection, schedule: Q01DX001 (ip), vehicle: saline): 86 % of control | T/C [8]: 111 % of control

CC(C)NCCCN
T/C (dose: 25.0 mg/kg/injection, schedule: Q04DX002 (ip), vehicle: saline with Tween-80): 98 % of control | T/C (dose: 50.0 mg/kg/injection, schedule: Q04DX002 (ip), vehicle: saline with Tween-80): 98 % of control | T/C [2]: 103 % of control | T/C (dose: 100.0 mg/kg/injection, schedule: Q04DX002 (ip), vehicle: saline with Tween-80): 101 % of control and 106 % of control | T/C [5]: 109 % of control

C(CC1CO1)C1CO1 (stereo not drawn)
T/C (dose: 7.0 mg/kg/injection, schedule: Q01DX009 (ip), vehicle: acetone): 197 % of control | T/C (dose: 9.0 mg/kg/injection, schedule: Q01DX Z (ip), vehicle: methylcellulose (MC)): 118 % of control | T/C (dose: 9.2 mg/kg/injection, schedule: Q01DX009 (ip), vehicle: saline): 102 % of control and 115 % of control | T/C (dose: 10.6 mg/kg/injection, schedule: Q01DX001 (ip), vehicle: acetone): 102 % of control | T/C (dose: 10.6 mg/kg/injection, schedule: Q01DX009 (ip), vehicle: acetone): 115 % of control | T/C (dose: 10.6 mg/kg/injection, schedule: Q04DX003 (ip), vehicle: acetone): 112 % of control | T/C (dose: 10.6 mg/kg/injection, schedule: Q08DX002 (ip), vehicle: acetone): 102 % of control | T/C (dose: 14.0 mg/kg/injection, schedule: Q01DX009 (ip), vehicle: acetone): 152 % of control | T/C (dose: 14.0 mg/kg/injection, schedule: Q01DX009 (ip), vehicle: saline): 102 % of control and 105 % of control | T/C (dose: 16.0 mg/kg/injection, schedule: Q01DX009 (ip), vehicle: acetone): 115 % of control | T/C (dose: 16.0 mg/kg/injection, schedule: Q04DX003 (ip), vehicle: acetone): 115 % of control | T/C (dose: 16.0 mg/kg/injection, schedule: Q08DX002 (ip), vehicle: acetone): 112 % of control | T/C (dose: 18.0 mg/kg/injection, schedule: Q01DX Z (ip), vehicle: methylcellulose (MC)): 122 % of control and 124 % of control | T/C (dose: 18.8 mg/kg/injection, schedule: Q01DX009 (ip), vehicle: saline): 107 % of control | T/C (dose: 21.0 mg/kg/injection, schedule: Q01DX009 (ip), vehicle: saline): 109 % of control and 116 % of control | T/C (dose: 22.0 mg/kg/injection, schedule: Q01DX001 (ip), vehicle: saline): 109 % of control | T/C (dose: 24.0 mg/kg/injection, schedule: Q01DX001 (ip), vehicle: acetone): 103 % of control | T/C (dose: 24.0 mg/kg/injection, schedule: Q04DX003 (ip), vehicle: acetone): 124 % of control | T/C (dose: 24.0 mg/kg/injection, schedule: Q08DX002 (ip), vehicle: acetone): 105 % of control | T/C (dose: 27.0 mg/kg/injection, schedule: Q01DX Z (ip), vehicle: methylcellulose (MC)): 110 % of control and 116 % of control | T/C (dose: 33.0 mg/kg/injection, schedule: Q01DX001 (ip), vehicle: saline): 107 % of control | T/C (dose: 36.0 mg/kg/injection, schedule: Q01DX001 (ip), vehicle: acetone): 110 % of control | T/C (dose: 36.0 mg/kg/injection, schedule: Q04DX003 (ip), vehicle: acetone): 124 % of control | T/C (dose: 36.0 mg/kg/injection, schedule: Q08DX002 (ip), vehicle: acetone): 117 % of control | T/C (dose: 37.5 mg/kg/injection, schedule: Q01DX009 (ip), vehicle: saline): 150 % of control | T/C (dose: 37.5 mg/kg/injection, schedule: Q04DX003 (ip), vehicle: saline sonified): 113 % of control | T/C (dose: 40.0 mg/kg/injection, schedule: Q01DX Z (ip), vehicle: methylcellulose (MC)): 108 % of control and 116 % of control | T/C (dose: 50.0 mg/kg/injection, schedule: Q01DX001 (ip), vehicle: saline): 117 % of control | T/C (dose: 54.0 mg/kg/injection, schedule: Q01DX001 (ip), vehicle: acetone): 121 % of control | T/C (dose: 54.0 mg/kg/injection, schedule: Q08DX002 (ip), vehicle: acetone): 113 % of control | T/C (dose: 60.0 mg/kg/injection, schedule: Q01DX Z (ip), vehicle: methylcellulose (MC)): 86 % of control | T/C (dose: 66.0 mg/kg/injection, schedule: Q01DX009 (ip), vehicle: acetone): 168 % of control | T/C (dose: 66.0 mg/kg/injection, schedule: Q04DX003 (ip), vehicle: saline): 117 % of control | T/C (dose: 75.0 mg/kg/injection, schedule: Q01DX009 (ip), vehicle: saline): 175 % of control | T/C (dose: 75.0 mg/kg/injection, schedule: Q04DX003 (ip), vehicle: saline sonified): 119 % of control | T/C (dose: 81.0 mg/kg/injection, schedule: Q01DX001 (ip), vehicle: acetone): 118 % of control | T/C (dose: 81.0 mg/kg/injection, schedule: Q04DX003 (ip), vehicle: acetone): 154 % of control | T/C (dose: 81.0 mg/kg/injection, schedule: Q08DX002 (ip), vehicle: acetone): 123 % of control | T/C [2]: 118 % of control | T/C (dose: 100.0 mg/kg/injection, schedule: Q01DX009 (ip), vehicle: acetone): 224 % of control | T/C (dose: 100.0 mg/kg/injection, schedule: Q04DX003 (ip), vehicle: acetone): 161 % of control | T/C (dose: 150.0 mg/kg/injection, schedule: Q04DX003 (ip), vehicle: saline): 101 % of control | T/C [5]: 121 % of control

CCOc1ccc(Cl)cc1Cl
T/C (dose: 100.0 mg/kg/injection, schedule: Q04DX002 (ip), vehicle: saline): 109 % of control | T/C (dose: 200.0 mg/kg/injection, schedule: Q04DX002 (ip), vehicle: saline): 113 % of control | T/C (dose: 400.0 mg/kg/injection, schedule: Q04DX002 (ip), vehicle: saline): 106 % of control

O=C(COc1ccc(Cl)cc1)Nc1cccc([N+](=O)[O-])c1
T/C (dose: 100.0 mg/kg/injection, schedule: Q01DX009 (ip), vehicle: saline with Tween-80): 96 % of control | T/C (dose: 200.0 mg/kg/injection, schedule: Q01DX009 (ip), vehicle: saline with Tween-80): 92 % of control | T/C (dose: 400.0 mg/kg/injection, schedule: Q01DX009 (ip), vehicle: saline with Tween-80): 90 % of control

O=C(c1ccccc1)C1OC(=O)C1c1ccccc1 (stereo not drawn)
T/C (dose: 100.0 mg/kg/injection, schedule: Q01DX001 (ip), vehicle: Klucel (hydroxypropylcellulose) (HPC)): 97 % of control | T/C (dose: 100.0 mg/kg/injection, schedule: Q04DX003 (ip), vehicle: Klucel (hydroxypropylcellulose) (HPC)): 101 % of control | T/C [1]: 92 % of control | T/C (dose: 200.0 mg/kg/injection, schedule: Q04DX003 (ip), vehicle: Klucel (hydroxypropylcellulose) (HPC)): 101 % of control | T/C (dose: 400.0 mg/kg/injection, schedule: Q01DX001 (ip), vehicle: Klucel (hydroxypropylcellulose) (HPC)): 103 % of control | T/C (dose: 400.0 mg/kg/injection, schedule: Q04DX003 (ip), vehicle: Klucel (hydroxypropylcellulose) (HPC)): 97 % of control

COC(=O)C1(Br)CCC1(Br)C(=O)OC (stereo not drawn)
T/C [3]: 100 % of control | T/C [4]: 93 % of control | T/C [6]: 100 % of control | T/C [7]: 100 % of control | T/C [8]: 98 % of control | T/C (dose: 400.0 mg/kg/injection, schedule: Q04DX003 (ip), vehicle: saline): 102 % of control

O=C(O)c1ccc(COc2ccc([N+](=O)[O-])cc2Cl)cc1
T/C (dose: 100.0 mg/kg/injection, schedule: Q01DX009 (ip), vehicle: saline sonified): 96 % of control | T/C (dose: 100.0 mg/kg/injection, schedule: Q04DX003 (ip), vehicle: saline with Tween-80): 96 % of control | T/C (dose: 200.0 mg/kg/injection, schedule: Q01DX009 (ip), vehicle: saline sonified): 97 % of control | T/C (dose: 200.0 mg/kg/injection, schedule: Q04DX003 (ip), vehicle: saline with Tween-80): 96 % of control | T/C (dose: 400.0 mg/kg/injection, schedule: Q04DX003 (ip), vehicle: saline with Tween-80): 101 % of control
